Experimental data as given in patent US20250302080A1, “SWEETNESS AND/OR FLAVOR ENHANCER” (AJINOMOTO CO., INC., priority 2022, published 2025).

Assays:
[1] = Sensory evaluation of sweetness intensity in sucrose solution (Experimental Examples 25-27); conditions: added alone, 3.0 points or more
Procedure: A negative control sucrose solution (0.7 wt % sucrose solution) was prepared by dissolving sucrose in filtered water.
(§1) A sensory evaluation of sweetness intensity was performed for each sample by a panel of four experts according to the following evaluation criteria.
Sweetness intensity was evaluated by 0.0 to 10.0 points based on the following reference samples (negative control (hereinafter referred to as NC) (0.0 point); reference 1 (hereinafter referred to as R1) (3.0 points), reference 2 (hereinafter referred to as R2) (5.0 points); reference 3 (hereinafter referred to as R3) (10.0 points)). The average score (rounded to two decimal places) of each expert panelist was calculated. An average score of 3.0 points or more was considered to be functional. • NC (0.0 point): 7.0 wt % sucrose solution (solvent: filtered water) • R1 (3.0 points): 7.3 wt % sucrose solution (solvent: filtered water) • R2 (5.0 points): 7.5 wt % sucrose solution (solvent: filtered water) • R3 (10.0 points): 8.0 wt % sucrose solution (solvent: filtered water)
A sensory evaluation of sweetness intensity was performed for each sample by a panel of four experts according to the same evaluation criteria as in Experimental Example 25.

[2] = Sensory evaluation of sweetness intensity in sucralose solution (Experimental Examples 23-24); conditions: sucralose solution; added alone; 3.0 points or more
Procedure: A negative control sucralose solution (0.0140 wt % sucralose solution) was prepared by dissolving sucralose in filtered water.
as §1
Sweetness intensity was evaluated by 0.0 to 10.0 point based on the following reference samples (negative control (hereinafter referred to as NC) (0.0 point); reference 1 (hereinafter referred to as R1) (3.0 points), reference 2 (hereinafter referred to as R2) (5.0 points); reference 3 (hereinafter referred to as R3) (10.0 points)). The average score (rounded to two decimal places) of each expert panelist was calculated. An average score of 3.0 points or more was considered to be functional. • NC (0.0 point): 0.0140 wt % sucralose solution (solvent: filtered water) • R1 (3.0 points): 0.0164 wt % sucralose solution (solvent: filtered water) • R2 (5.0 points): 0.0180 wt % sucralose solution (solvent: filtered water) • R3 (10.0 points): 0.0220 wt % sucralose solution (solvent: filtered water)
A sensory evaluation of sweetness intensity was performed for each sample by a panel of four experts according to the same evaluation criteria as in Experimental Example 23.

## CCCCCCCCCC(=O)O [decanoic acid]
[1]
  concentration at which a sweetness-enhancing effect was confirmed: 10 ppb
[2]
  concentration at which a sweetness-enhancing effect was confirmed: 10 ppb
